# In PMC3394890 (Therapeutic Drug Monitoring, 2012):
# Read-outs that look alike come from different tables or passages of the source. Bridge positions count the residues as written; N and C are the ends. Square brackets hold non-standard residues; d marks the D form. Peptide text beside a SMILES is read from it. * marks the point of attachment. Heptanoyl(6-Me) = CC(C)CCCCC(=O)*; X1 = CC[C@H](C)CCCCC(=O)*; Dab = NCC[C@H](N)C(=O)O
# Key:
# [1] = Polymyxin B1 and B2 plasma levels in further patient samples; conditions: human, in vivo, iv
# [2] = human, in vivo
# [3] = type: in vitro ADME; conditions: human EDTA plasma QC samples
Plasma concentration of the patient sample of Figure 1E/F [1] [ng/mL],"half-life ([2]; female, iv) [h]","Ratio of polymyxin B2 to polymyxin B1+polymyxin B2 in plasma, mean [2]","Ratio of polymyxin B2 to polymyxin B1+polymyxin B2 in plasma, range [2]",SMILES,"level at 0 h ([2]; female, iv, 1.5 mg/kg) [ng/mL]","level at 12 h ([2]; female, iv, 1.5 mg/kg) [ng/mL]",Stability during repetitive freeze-thaw cycles [3],Time stable at 4°C ([3]; 4°C),Time stable at room temperature ([3]; 22°C),Time stable at −80°C ([3]; −80°C),"Cmax ([2]; female, iv, 1.5 mg/kg) [ng/mL]","half-life ([2]; female, iv, 1.5 mg/kg) [h]"
322,5.4,0.15,0.13-0.16,CC(C)CCCCC(=O)N[C@@H](CCN)C(=O)N[C@H](C(=O)N[C@@H](CCN)C(=O)N[C@H]1CCNC(=O)[C@H]([C@@H](C)O)NC(=O)[C@H](CCN)NC(=O)[C@H](CCN)NC(=O)[C@H](CC(C)C)NC(=O)[C@@H](Cc2ccccc2)NC(=O)[C@H](CCN)NC1=O)[C@@H](C)O [polymyxin B2] ({Heptanoyl(6-Me)}-[Dab]T[Dab][Dab][Dab][dF]L[Dab][Dab]T; lactam 4-C),252,214,–,–,–,–,–,–
–,–,–,–,CC[C@H](C)CCCCC(=O)N[C@@H](CCN)C(=O)N[C@H](C(=O)N[C@@H](CCN)C(=O)N[C@H]1CCNC(=O)[C@H]([C@@H](C)O)NC(=O)[C@H](CCN)NC(=O)[C@H](CCN)NC(=O)[C@H](CC(C)C)NC(=O)[C@@H](Cc2ccccc2)NC(=O)[C@H](CCN)NC1=O)[C@@H](C)O [polymyxin B1] (X1-[Dab]T[Dab][Dab][Dab][dF]L[Dab][Dab]T; lactam 4-C),1400,1080,at least three repetitive freeze-thaw cycles,at least 72 h,at least 24 h,at least 3 months,4830,4.7
